Reference: ChEMBL document CHEMBL1201862, “PubChem BioAssay data set” (2004)
Calls of active or inactive are those of the source.

Tests used:
[1] = Luminescence Cell-Based Dose Response HTS to Identify Inhibitors of 5'UTR Stem-Loop Driven Prion Protein mRNA Translation in H4 Neuroglioblastoma Cells. [Related pubchem assays: 1827 (Project Summary), 1813 (Primary HTS)]; assay type: functional
[2] = inhibitors of firefly luciferase expression or activity, dose response, H4 neuroglioma cells, luminescence (AID 1990); assay type: functional, cell-based
[3] = cytotoxicity in HEK-293T NF-kB-Luc cells, dose response, cytotoxicity control for B/T-cell NF-kB inhibitor project, cell-based, uHTS hits (AID 489019); assay type: functional;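 note: IC50 reflects cytotoxicity as loss of cell viability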
[4] = inhibitors of SNCA 5'UTR-driven reporter translation, confirmation, H4 neuroglioma cells, luminescence (AID 1988); assay type: functional, cell-based
[5] = target: T1, Heat shock factor protein 1 (Mus musculus, UniProt P38532); assay: inhibition of MG132-induced HSE-luciferase signal, confirmation, cell-based, NIH3T3, luminescence, dose retest (AID 2382); assay type: functional;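 note: NIH3T3 fibroblasts with HSF1-driven luciferase reporter stressed by proteasome inhibitor MG132; luminescence from HSF1-driven luciferase expression after 8 hours of MG132 stress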
T1 sequence (P38532 whole entry): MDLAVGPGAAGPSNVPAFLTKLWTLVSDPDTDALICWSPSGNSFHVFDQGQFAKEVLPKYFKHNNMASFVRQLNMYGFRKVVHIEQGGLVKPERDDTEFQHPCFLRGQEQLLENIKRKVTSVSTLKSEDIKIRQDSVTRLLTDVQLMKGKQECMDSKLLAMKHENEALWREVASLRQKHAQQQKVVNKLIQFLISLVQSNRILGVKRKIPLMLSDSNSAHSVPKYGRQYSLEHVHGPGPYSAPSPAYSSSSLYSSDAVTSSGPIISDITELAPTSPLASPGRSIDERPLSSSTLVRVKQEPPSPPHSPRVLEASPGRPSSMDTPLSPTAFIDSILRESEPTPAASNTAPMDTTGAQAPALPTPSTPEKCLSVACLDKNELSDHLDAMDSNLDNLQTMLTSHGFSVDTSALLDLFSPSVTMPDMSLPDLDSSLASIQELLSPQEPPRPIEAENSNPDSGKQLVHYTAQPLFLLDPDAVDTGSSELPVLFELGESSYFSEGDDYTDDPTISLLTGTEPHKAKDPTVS

[6] = tested on: Jurkat; assay: antigen receptor-induced NF-kB inhibitors, dose response, Jurkat, luciferase reporter, luminescence, B- and T-cell (AID 489004); assay type: functional, cell-based; conditions: Homo sapiens;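 note: NF-kB luciferase reporter Jurkat cells stimulated with PMA plus ionomycin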
[7] = target: Prothrombin (Homo sapiens, UniProt P00734); assay: Thrombin 1536 HTS Dose Response Confirmation. [Related pubchem assays: 1046 (Thrombin 1536 HTS; hits were confirmed in this assay)]; assay type: functional
[8] = target: CAAX prenyl protease 1 (Saccharomyces cerevisiae S288c, UniProt P47154); assay: Ste24 protease inhibitors, dose response, biochemical, S. cerevisiae, plate reader, cherry-pick (AID 488815)
CAAX prenyl protease 1, sequence (P47154 whole entry): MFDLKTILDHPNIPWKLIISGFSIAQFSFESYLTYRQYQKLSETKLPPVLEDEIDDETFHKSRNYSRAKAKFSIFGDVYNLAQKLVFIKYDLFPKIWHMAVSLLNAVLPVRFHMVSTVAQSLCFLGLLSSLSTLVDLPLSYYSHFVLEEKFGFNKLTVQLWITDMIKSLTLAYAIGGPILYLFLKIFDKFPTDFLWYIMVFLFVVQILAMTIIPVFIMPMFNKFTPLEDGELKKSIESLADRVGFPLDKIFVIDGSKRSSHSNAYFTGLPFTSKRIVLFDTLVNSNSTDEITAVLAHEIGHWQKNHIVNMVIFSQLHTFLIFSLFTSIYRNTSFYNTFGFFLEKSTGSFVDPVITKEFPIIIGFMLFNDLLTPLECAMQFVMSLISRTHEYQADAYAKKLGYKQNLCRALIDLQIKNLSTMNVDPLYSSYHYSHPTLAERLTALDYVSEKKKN

[9] = target: T2, CAAX prenyl protease 2 (Homo sapiens, UniProt Q9Y256); assay: human Rce1 protease inhibitors, dose response, biochemical, yeast membranes, quenched-peptide fluorescence, cherry-pick (AID 588849)
T2 sequence (Q9Y256 whole entry): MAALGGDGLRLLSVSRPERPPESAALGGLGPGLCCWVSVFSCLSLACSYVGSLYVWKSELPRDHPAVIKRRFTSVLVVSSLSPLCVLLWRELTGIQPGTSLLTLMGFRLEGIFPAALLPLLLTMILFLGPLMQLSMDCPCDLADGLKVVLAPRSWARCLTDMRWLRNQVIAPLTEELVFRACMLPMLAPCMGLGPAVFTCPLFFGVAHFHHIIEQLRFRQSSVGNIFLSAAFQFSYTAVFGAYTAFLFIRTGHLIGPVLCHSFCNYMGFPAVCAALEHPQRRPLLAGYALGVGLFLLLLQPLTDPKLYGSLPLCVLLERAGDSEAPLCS

[10] = target: T3, COUP transcription factor 2 (Homo sapiens, UniProt P24468); assay: Luminescence-based cell-based high throughput dose response assay to identify inhibitors of COUP-TFII (NR2F2).; assay type: functional;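 note: HEK293 cells transiently cotransfected with COUP-TFII expression vector and reporter; luciferase reporter luminescence driven by COUP-TFII from the pX2-168 reporter plasmid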
T3 sequence (P24468 whole entry): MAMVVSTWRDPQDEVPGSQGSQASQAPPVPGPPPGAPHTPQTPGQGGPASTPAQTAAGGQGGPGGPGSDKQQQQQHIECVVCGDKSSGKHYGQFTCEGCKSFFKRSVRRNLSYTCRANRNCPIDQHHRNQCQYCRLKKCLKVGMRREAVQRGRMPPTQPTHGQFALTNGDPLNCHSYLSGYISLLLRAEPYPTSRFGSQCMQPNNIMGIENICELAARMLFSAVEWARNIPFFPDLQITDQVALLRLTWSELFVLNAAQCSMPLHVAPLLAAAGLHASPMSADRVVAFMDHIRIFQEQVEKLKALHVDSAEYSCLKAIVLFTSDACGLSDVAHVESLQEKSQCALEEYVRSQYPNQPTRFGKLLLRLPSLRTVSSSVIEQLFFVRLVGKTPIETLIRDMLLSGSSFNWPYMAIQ

[11] = target: ORF 73 (Human herpesvirus 8, UniProt O40947); assay: inhibitors of C-LANA binding to LBS DNA, dose response, biochemical, fluorescence polarization, cherry-picked samples (AID 504725); design: species or system Human gammaherpesvirus 8;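 note: fluorescence polarization of a labeled DNA duplex reporting LANA DNA binding; potency is for inhibitors that block LANA binding to the DNA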
ORF 73, sequence (O40947 whole entry): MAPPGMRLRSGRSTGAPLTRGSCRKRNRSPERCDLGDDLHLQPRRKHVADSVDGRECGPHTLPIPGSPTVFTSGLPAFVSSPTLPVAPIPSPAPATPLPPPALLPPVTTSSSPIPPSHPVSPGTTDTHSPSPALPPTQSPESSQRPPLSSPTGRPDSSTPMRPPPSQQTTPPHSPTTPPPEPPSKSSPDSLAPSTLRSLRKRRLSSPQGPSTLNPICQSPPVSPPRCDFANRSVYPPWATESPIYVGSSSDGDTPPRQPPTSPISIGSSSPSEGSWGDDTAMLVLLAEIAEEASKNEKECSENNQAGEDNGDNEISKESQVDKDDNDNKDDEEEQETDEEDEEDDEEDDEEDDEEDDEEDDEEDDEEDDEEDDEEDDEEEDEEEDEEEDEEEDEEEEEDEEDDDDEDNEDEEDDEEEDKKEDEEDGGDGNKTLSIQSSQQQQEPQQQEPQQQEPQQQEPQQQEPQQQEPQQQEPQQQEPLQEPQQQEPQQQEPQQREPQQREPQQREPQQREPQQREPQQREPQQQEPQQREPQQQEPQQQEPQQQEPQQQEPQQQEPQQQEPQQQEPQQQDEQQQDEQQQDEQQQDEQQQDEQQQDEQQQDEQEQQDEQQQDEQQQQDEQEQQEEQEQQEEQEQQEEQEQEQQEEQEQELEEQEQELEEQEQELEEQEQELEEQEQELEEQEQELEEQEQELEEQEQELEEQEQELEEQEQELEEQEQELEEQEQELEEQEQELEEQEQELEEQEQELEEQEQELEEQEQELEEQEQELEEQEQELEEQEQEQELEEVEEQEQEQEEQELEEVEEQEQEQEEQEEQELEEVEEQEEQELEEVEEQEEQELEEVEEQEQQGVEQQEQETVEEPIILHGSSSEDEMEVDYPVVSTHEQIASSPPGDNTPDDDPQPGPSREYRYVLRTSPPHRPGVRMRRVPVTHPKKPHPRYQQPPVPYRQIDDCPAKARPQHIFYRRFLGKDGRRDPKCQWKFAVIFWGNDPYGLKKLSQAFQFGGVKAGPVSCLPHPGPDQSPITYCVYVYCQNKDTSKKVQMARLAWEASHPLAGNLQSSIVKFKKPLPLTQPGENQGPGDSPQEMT

[12] = target: UDP-galactopyranose mutase (Mycobacterium tuberculosis, UniProt P9WIQ1); assay: Inhibitors of Mycobacterium tuberculosis UDP-galactopyranose mutase (UGM) enzyme Measured in Biochemical System Using Plate Reader - 2105-02_Inhibitor_Dose_CherryPick_Activity. [Related pubchem assays (depositor defined):AID504439]
UDP-galactopyranose mutase, sequence (P9WIQ1 whole entry): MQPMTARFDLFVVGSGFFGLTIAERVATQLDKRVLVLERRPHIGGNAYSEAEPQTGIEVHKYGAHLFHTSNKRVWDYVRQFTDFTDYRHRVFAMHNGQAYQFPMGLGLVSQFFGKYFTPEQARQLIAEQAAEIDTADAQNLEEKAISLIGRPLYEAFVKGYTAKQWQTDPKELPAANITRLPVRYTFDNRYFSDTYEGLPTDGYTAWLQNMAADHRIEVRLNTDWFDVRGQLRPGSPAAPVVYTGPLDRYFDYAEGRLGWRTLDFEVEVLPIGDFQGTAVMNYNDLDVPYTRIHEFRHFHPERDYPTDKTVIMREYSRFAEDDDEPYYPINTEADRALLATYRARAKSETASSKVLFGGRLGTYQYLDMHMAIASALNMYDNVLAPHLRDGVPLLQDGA

[13] = target: T4, Serine/threonine-protein phosphatase (Candida dubliniensis (strain CD36 / CBS 7987 / NCPF 3949 / NRRLY-17841) (Yeast), UniProt B9W6M3); assay: calcineurin pathway inhibitors in yeast reporter, dose response, S. cerevisiae, CDRE-lacZ, luminescence, secondary (AID 2388); assay type: functional, cell-based;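 note: yeast reporter cells carrying a calcineurin-responsive lacZ construct stimulated with calcium chloride; luminescent beta-galactosidase reporter signal in whole cells rather than isolated phosphatase activity; potency for inhibition where a drop in reporter signal means calcineurin blockade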
T4 sequence (B9W6M3 whole entry): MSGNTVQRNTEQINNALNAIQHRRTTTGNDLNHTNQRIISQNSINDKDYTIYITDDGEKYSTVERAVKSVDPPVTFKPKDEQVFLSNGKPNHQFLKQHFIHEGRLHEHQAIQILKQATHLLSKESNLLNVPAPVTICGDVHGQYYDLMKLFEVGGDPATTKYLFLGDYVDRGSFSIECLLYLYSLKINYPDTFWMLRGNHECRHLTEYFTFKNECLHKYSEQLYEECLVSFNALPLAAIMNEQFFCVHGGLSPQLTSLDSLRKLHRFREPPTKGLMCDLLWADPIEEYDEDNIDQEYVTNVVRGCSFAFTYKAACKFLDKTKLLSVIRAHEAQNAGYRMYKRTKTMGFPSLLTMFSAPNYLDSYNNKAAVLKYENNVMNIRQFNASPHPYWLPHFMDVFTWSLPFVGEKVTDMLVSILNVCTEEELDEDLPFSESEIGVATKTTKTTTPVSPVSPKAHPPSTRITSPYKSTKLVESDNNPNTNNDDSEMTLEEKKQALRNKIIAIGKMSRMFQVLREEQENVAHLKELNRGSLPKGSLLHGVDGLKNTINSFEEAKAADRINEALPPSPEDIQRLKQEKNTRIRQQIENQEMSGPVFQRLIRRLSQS

[14] = C. albicans growth with fluconazole, confirmation, fluorescence, retest (AID 2467); assay type: functional, cell-based
[15] = NIH-3T3 fibroblast cytotoxicity, dose response, cytotoxicity control, cell-based, fluorescence, Alamar Blue, secondary assay (AID 2327); assay type: functional;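 note: NIH-3T3 mouse fibroblasts cultured with fluconazole at 8 µg/mL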
[16] = target: ATP-dependent molecular chaperone HSP82 (Candida albicans (strain WO-1) (Yeast), UniProt C4YTQ8); assay: loss of DOC-induced GRE-beta-galactosidase reporter signal, dose response, Hsp90 inhibitor project, S. cerevisiae, luminescence (AID 2400); assay type: functional, cell-based;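 note: beta-galactosidase luminescence from glucocorticoid response element reporter as proxy for Hsp90 function; inhibitor potency where signal loss means Hsp90 inhibition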
ATP-dependent molecular chaperone HSP82, sequence (C4YTQ8 whole entry): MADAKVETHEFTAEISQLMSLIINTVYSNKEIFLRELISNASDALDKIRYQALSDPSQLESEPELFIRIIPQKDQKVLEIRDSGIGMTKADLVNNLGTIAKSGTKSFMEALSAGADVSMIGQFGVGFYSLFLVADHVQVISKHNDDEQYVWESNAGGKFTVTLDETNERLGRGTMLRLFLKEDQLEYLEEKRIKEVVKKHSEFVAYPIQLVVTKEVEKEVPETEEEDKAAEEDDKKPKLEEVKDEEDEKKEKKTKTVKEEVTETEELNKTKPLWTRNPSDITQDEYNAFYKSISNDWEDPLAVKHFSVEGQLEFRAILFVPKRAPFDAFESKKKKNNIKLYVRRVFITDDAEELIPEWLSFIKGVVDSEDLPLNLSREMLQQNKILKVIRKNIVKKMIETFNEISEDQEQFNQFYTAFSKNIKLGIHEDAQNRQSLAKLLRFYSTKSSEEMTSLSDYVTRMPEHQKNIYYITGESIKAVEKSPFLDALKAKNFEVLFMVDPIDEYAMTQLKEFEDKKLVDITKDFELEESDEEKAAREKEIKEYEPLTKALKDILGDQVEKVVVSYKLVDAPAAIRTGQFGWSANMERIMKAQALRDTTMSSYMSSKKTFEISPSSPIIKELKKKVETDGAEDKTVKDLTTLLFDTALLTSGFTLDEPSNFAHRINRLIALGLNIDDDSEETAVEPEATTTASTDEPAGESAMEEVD

[17] = target: Troponin, cardiac muscle (Homo sapiens, UniProt P19429+P45379+P63316); assay: Fluorescence-based biochemical high throughput dose response assay for activators of the calcium sensitivity of cardiac Regulated Thin Filaments (RTF). [Related pubchem assays (depositor defined):AID493008, AID493018, AID504382, AID504383]; assay type: protein-complex assay
[18] = target: T5, Zinc finger protein mex-5 (Caenorhabditis elegans, UniProt Q9XUB2); assay: MEX-5/TCR-2 RNA interaction inhibitors, dose response, biochemical, C. elegans, fluorescence polarization (AID 1960)
T5 sequence (Q9XUB2 whole entry): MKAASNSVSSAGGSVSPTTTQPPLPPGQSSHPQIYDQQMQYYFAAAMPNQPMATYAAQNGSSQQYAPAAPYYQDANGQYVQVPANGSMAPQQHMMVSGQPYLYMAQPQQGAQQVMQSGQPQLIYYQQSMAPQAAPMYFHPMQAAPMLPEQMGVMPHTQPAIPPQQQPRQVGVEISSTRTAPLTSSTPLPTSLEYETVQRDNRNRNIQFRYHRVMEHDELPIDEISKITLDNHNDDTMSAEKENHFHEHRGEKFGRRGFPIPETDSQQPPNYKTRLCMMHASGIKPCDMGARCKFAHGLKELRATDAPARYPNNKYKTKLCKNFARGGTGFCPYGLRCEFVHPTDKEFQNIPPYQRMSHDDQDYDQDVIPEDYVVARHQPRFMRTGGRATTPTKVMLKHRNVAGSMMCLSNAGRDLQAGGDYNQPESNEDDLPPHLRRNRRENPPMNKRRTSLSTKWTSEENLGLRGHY

[19] = target: T6, RNA-binding protein pos-1 (Caenorhabditis elegans, UniProt G5EF15); assay: inhibitors of POS-1/mex-3 RNA binding, dose response, biochemical, fluorescence polarization (AID 1964);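 note: purified POS-1 fused to maltose binding protein made in E. coli; potency of compounds blocking POS-1 binding to fluorescent RNA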
T6 sequence (G5EF15 whole entry): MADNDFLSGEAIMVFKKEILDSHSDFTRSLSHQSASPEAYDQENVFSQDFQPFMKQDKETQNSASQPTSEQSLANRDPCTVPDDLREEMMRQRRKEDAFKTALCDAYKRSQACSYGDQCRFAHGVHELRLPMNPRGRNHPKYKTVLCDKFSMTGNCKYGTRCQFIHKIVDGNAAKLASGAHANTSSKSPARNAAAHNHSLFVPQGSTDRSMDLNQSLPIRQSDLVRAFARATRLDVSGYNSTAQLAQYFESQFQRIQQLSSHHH

[20] = target: T7, Estrogen receptor (Homo sapiens, UniProt P03372);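 note: potency for inhibiting coactivator peptide recruitment to the receptor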
T7 sequence (P03372 whole entry): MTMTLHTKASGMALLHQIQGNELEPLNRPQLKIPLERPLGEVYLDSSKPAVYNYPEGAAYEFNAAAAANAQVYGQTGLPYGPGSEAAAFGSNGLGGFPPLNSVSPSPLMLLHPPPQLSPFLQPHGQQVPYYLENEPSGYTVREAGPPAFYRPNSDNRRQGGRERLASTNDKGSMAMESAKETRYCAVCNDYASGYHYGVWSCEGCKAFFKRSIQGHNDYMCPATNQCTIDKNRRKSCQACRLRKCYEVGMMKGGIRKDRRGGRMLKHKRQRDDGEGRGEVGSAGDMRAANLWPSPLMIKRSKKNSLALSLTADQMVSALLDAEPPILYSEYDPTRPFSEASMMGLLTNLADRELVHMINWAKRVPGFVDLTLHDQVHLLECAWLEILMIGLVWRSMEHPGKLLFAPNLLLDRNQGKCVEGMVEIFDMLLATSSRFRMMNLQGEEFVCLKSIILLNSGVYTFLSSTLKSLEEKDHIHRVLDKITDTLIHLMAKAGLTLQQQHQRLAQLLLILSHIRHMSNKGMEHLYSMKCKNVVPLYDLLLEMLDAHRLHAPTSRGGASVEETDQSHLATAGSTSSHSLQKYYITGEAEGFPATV

[21] = target: T8, Estrogen receptor beta (Homo sapiens, UniProt Q92731);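 note: recombinant ER-beta bound to coactivator SRC1 peptide in presence of estradiol agonist; inhibitors block coactivator peptide binding and lower the FRET signal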
T8 sequence (Q92731 whole entry): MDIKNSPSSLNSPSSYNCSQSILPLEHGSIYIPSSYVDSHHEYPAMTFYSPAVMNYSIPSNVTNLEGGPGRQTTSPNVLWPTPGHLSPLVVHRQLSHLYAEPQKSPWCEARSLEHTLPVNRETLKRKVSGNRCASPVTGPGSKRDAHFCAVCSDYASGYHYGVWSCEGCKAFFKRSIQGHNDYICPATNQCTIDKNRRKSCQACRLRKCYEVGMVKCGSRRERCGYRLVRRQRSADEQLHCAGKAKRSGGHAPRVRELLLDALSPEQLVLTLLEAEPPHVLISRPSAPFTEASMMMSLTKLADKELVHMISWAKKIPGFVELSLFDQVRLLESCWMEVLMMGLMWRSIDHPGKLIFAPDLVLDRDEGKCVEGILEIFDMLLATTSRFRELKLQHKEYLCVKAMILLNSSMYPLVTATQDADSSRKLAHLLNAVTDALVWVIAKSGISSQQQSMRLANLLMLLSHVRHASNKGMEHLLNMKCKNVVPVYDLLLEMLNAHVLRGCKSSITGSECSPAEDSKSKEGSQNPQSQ

[22] = target: T8, Estrogen receptor beta; assay: ERβ–SRC-3 coactivator interaction inhibitors, confirmation, orthogonal assay, biochemical, ELISA, streptavidin-HRP readout (AID 1060)
[23] = target: CAAX prenyl protease 2 (Saccharomyces cerevisiae S288c, UniProt Q03530); assay type: biochemical
CAAX prenyl protease 2 (Saccharomyces cerevisiae S288c, UniProt Q03530), sequence (Q03530 whole entry): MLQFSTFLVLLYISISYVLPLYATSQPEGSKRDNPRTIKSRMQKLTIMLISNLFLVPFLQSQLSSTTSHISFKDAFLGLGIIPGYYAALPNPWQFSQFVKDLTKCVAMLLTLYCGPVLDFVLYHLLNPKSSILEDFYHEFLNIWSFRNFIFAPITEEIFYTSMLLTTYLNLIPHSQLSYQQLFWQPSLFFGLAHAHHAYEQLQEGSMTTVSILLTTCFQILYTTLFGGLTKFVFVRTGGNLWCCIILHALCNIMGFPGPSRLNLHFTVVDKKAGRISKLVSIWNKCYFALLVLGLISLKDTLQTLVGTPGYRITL

[24] = tested on: Jurkat; assay: SAR Analysis of small molecule inhibitors of T-cell specific antigen receptor-induced NF-kB activation in a Jurkat cell line using a luminescence assay - Set 2. [Related pubchem assays (depositor defined):AID435003, AID435012, AID465]; assay type: functional, cell-based; conditions: Homo sapiens
[25] = tested on: HEK293; assay: SAR Analysis of small molecule inhibitors of T-cell specific antigen receptor-induced NF-kB activation in a HEK-293T cell line using a luminescence assay - Set 2. [Related pubchem assays (depositor defined):AID435003, AID435012, AID489026]; assay type: functional, cell-based; conditions: Homo sapiens
[26] = tested on: HEK293; assay: cytotoxicity in HEK293T NF-kB-Luc cells, SAR follow-up, cytotoxicity control for NF-kB activator project, cell-based, resazurin fluorescence (AID 493251); assay type: functional; conditions: Homo sapiens

Structure (SMILES): Cc1ccc(C(=O)Nc2cccc(C(F)(F)F)c2)cc1NC(=O)c1ccno1
- EC50 [1]: 6.47 µM (active)
- EC50 [2]: < 0.1 µM (active)
- IC50 [3]: > 80 µM (inactive)
- EC50 [4]: 0.285 µM (active)
- EC50 [5]: 0.333 µM (active)
- IC50 [6]: > 80 µM (inactive)

Structure (SMILES): CCOC(=O)C1=C(C)OC(N)=C(C#N)C1c1cc2c(cc1[N+](=O)[O-])OCO2 (centres undefined)
- IC50 [7]: 0.915 µM (active)
- AC50 [8]: 5.61 µM (active)
- AC50 [9]: 13.2 µM (active)

Structure (SMILES): COc1ccc(NS(=O)(=O)c2cccc(NC(=O)c3ccc(Cl)nc3)c2)cc1
- IC50 [3]: > 80 µM (inactive)
- IC50 [6]: 38.2 µM (inactive)
- IC50 [10]: 3.21 µM (active)

Structure (SMILES): CCN(CC)c1ccc2cc(S(=O)(=O)c3ccc(C)cc3)c(=O)oc2c1
- AC50 [11]: 18.4 µM (active)
- AC50 [12]: 63.4 µM (active)
- EC50 [13]: > 180 µM (inactive)
- EC50 [14]: 0.203 µM (active)
- EC50 [15]: 25.2 µM (active)
- EC50 [16]: 21.9 µM (active)

Structure (SMILES): CC(=O)Nc1ccc(/N=C/c2nc(-c3ccc(C)cc3)oc2O)cc1
- EC50 [17]: 11.6 µM (inactive)
- EC50 [18]: > 300 µM (inconclusive)
- EC50 [19]: > 300 µM (not active)
- IC50 [20]: 8.2 µM (active)
- IC50 [21]: > 50 µM (not active)
- IC50 [22]: 21.6 µM (not active)

Structure (SMILES): COc1ccc(C2c3c(ncn(CCCO)c3=N)Oc3ccc4ccccc4c32)cc1 (centres undefined)
- AC50 [8]: 8.82 µM (active)
- AC50 [23]: 5.6 µM (active)

Structure (SMILES): CCCCC(=O)NC(c1ccc(C)cc1)c1ccc2cccnc2c1O (centres undefined)
- IC50 [24]: 2.65 µM (active)
- IC50 [25]: 2.78 µM (active)
- IC50 [26]: 26.1 µM (inactive)
